Measurements reported in patent publication US20230022157A1 (Achillion Pharmaceuticals, Inc., priority 2018, published 2023).

target: T1, Human Factor D (Homo sapiens, UniProt P00746); assay: Human Factor D Assay; type: biochemical; conditions: Human Factor D 80 nM, substrate Z-L-Lys-SBzl; Table 2; read-out: IC50 (Stars)
T1 construct: purified from human serum; purchased Complement Technology, Inc; host or cells: human serum (natural protein, not recombinant)
In short: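 Serum-purified human factor D (80 nM final) preincubated 5 min at room temperature with test compound in 50 mM Tris, 1M NaCl, pH 7.5. Z-L-Lys-SBzl substrate and DTNB then added, each at 100 μM final. IC50 from nonlinear regression of reaction rate against compound concentration.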

T1 sequence (P00746 26-253): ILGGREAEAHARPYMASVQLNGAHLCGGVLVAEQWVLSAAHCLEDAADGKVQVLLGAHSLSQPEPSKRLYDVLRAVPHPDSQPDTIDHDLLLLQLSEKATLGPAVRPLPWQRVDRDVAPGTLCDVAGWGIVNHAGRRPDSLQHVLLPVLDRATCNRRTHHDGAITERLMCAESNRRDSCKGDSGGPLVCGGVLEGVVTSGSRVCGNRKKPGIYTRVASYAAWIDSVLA

SMILES	IC50
CC(=O)c1cn(CC(=O)N2C[C@H]3C[C@H]3[C@H]2C(=O)Nc2nc(Br)c(F)cc2C)c2c(C)cc(-c3cnc(CO)nc3)cc12 [Compound 83, (1R,2S,5S)-3-(2-(3-acetyl-5-(2-(hydroxymethyl)pyrimidin-5-yl)-7-methyl-11H-indol-1-yl)acetyl)-N-(6-bromo-5-fluoro-3-methylpyridin-2-yl)-3-azabicyclo[3.1.0]hexane-2-carboxamide]	< 1000 nM
CC(=O)c1cn(CC(=O)N2[C@H](C(=O)Nc3nc(Br)ccc3Cl)C[C@@]3(C)C[C@@H]23)c2c(C)cc(-c3cnc(CO)nc3)cc12 [Compound 84, (1R,3S,5R)-2-(2-(3-acetyl-5-(2-(hydroxymethyl)pyrimidin-5-yl)-7-methyl-1H-indol-1-yl)acetyl)-N-(6-bromo-3-chloropyridin-2-yl)-5-methyl-2-azabicyclo[3.1.0]hexane-3-carboxamide]	< 1000 nM
CC(=O)c1nn(CC(=O)N2[C@H](C(=O)N[C@@H](c3ccccc3)C(F)(F)F)C[C@@]3(C)C[C@@H]23)c2c(C)cc(-c3cnc(C)nc3)cc12 [Compound 85, (1R,3S,5R)-2-{2-[3-acetyl-7-methyl-5-(2-methylpyrimidin-5-yl)indazol-1-yl]acetyl}-5-methyl-N-[(1S)-2,2,2-trifluoro-1-phenylethyl]-2-azabicyclo[3.1.0]hexane-3-carboxamide]	< 1000 nM
CC(=O)c1nn(CC(=O)N2[C@H](C(=O)N[C@H](c3ccccc3)C(F)(F)F)C[C@@]3(C)C[C@@H]23)c2c(C)cc(-c3cnc(C)nc3)cc12 [Compound 86, (1R,3S,5R)-2-{2-[3-acetyl-7-methyl-5-(2-methylpyrimidin-5-yl)indazol-1-yl]acetyl}-5-methyl-N-[(1R)-2,2,2-trifluoro-1-phenylethyl]-2-azabicyclo[3.1.0]hexane-3-carboxamide]	< 1000 nM
COC(C)(C)CNC(=O)[C@@H]1C[C@@]2(C)C[C@H]2N1C(=O)Cn1nc(C(C)=O)c2cc(-c3cnc(C)nc3)cc(C)c21 [Compound 87, (1R,3S,5R)-2-{2-[3-acetyl-7-methyl-5-(2-methylpyrimidin-5-yl)indazol-1-yl]acetyl}-N-(2-methoxy-2-methylpropyl)-5-methyl-2-azabicyclo[3.1.0]hexane-3-carboxamide]	< 1000 nM
CCCCC(NC(=O)[C@@H]1C[C@@]2(C)C[C@H]2N1C(=O)Cn1nc(C(C)=O)c2cc(-c3cnc(C)nc3)cc(C)c21)C(F)(F)F (stereo partly drawn) [Compound 88, (1R,3S,5R)-2-{2-[3-acetyl-7-methyl-5-(2-methylpyrimidin-5-yl)indazol-1-yl]acetyl}-5-methyl-N-(1,1,1-trifluorohexan-2-yl)-2-azabicyclo[3.1.0]hexane-3-carboxamide]	< 1000 nM
CC(=O)c1nn(CC(=O)N2[C@H](C(=O)NCC3(C)CC3)C[C@@]3(C)C[C@@H]23)c2c(C)cc(-c3cnc(C)nc3)cc12 [Compound 89, (1R,3S,5R)-2-{2-[3-acetyl-7-methyl-5-(2-methylpyrimidin-5-yl)indazol-1-yl]acetyl}-5-methyl-N-[(1-methylcyclopropyl)methyl]-2-azabicyclo[3.1.0]hexane-3-carboxamide]	< 1000 nM
CC(=O)c1nn(CC(=O)N2[C@H](C(=O)NCC3(C)CCCCC3)C[C@@]3(C)C[C@@H]23)c2c(C)cc(-c3cnc(C)nc3)cc12 [Compound 90, (1R,3S,5R)-2-{2-[3-acetyl-7-methyl-5-(2-methylpyrimidin-5-yl)indazol-1-yl]acetyl}-5-methyl-N-[(1-methylcyclohexyl)methyl]-2-azabicyclo[3.1.0]hexane-3-carboxamide]	< 1000 nM
Cc1ncc(-c2cc3c(C(N)=O)nn(CC(=O)N4C(C(=O)Nc5nc(Br)ccc5Cl)CC5(C)CC45)c3c(C)n2)cn1 (stereo not shown) [Compound 91, 1-{2-[3-(6-Bromo-3-chloro-pyridin-2-ylcarbamoyl)-5-methyl-2-aza-bicyclo[3.1.0]hex-2-yl]-2-oxo-ethyl}-7-methyl-5-(2-methyl-pyrimidin-5-yl)-1H-pyrazolo[3,4-c]pyridine-3-carboxylic acid amide]	< 1000 nM
Cc1ncc(-c2cc3c(C(N)=O)nn(CC(=O)N4[C@H](C(=O)Nc5cncc(Br)n5)C[C@@]5(C)C[C@@H]45)c3c(C)n2)cn1 [Compound 92, 1-{2-[3-(6-Bromo-pyrazin-2-ylcarbamoyl)-5-methyl-2-aza-bicyclo[3.1.0]hex-2-yl]-2-oxo-ethyl}-7-methyl-5-(2-methyl-pyrimidin-5-yl)-1H-pyrazolo[3,4-c]pyridine-3-carboxylic acid amide]	< 1000 nM
CC(=O)c1nn(CC(=O)N2[C@H](C(=O)Nc3cc(C)cc(Br)n3)C[C@@]3(C)C[C@@H]23)c2c(C)cc(-c3cnc(CO)nc3)cc12 [Compound 93, (1R,3S,5R)-2-(2-(3-acetyl-5-(2-(hydroxymethyl)pyrimidin-5-yl)-7-methyl-1H-indazol-1-yl)acetyl)-N-(6-bromo-4-methylpyridin-2-yl)-5-methyl-2-azabicyclo[3.1.0]hexane-3-carboxamide]	< 1000 nM
CC(=O)c1nn(CC(=O)N2[C@H](C(=O)Nc3cnc(C)c(Br)n3)C[C@@]3(C)C[C@@H]23)c2c(C)cc(-c3cnc(CO)nc3)cc12 [Compound 94, (1R,3S,5R)-2-(2-(3-acetyl-5-(2-(hydroxymethyl)pyrimidin-5-yl)-7-methyl-1H-indazol-1-yl)acetyl)-N-(6-bromo-5-methylpyrazin-2-yl)-5-methyl-2-azabicyclo[3.1.0]hexane-3-carboxamide]	< 1000 nM
CC(=O)c1nn(CC(=O)N2[C@H](C(=O)Nc3nc(Br)ccc3C)C[C@@]3(C)C[C@@H]23)c2c(C)cc(-c3cnc(C(C)O)nc3)cc12 (stereo partly drawn) [Compound 95, (1R,3S,5R)-2-(2-(3-acetyl-5-(2-(1-hydroxyethyl)pyrimidin-5-yl)-7-methyl-1H-indazol-1-yl)acetyl)-N-(6-bromo-3-methylpyridin-2-yl)-5-methyl-2-azabicyclo[3.1.0]hexane-3-carboxamide]	< 1000 nM
CC(=O)c1nn(CC(=O)N2[C@H](C(=O)Nc3nc(Br)c(F)cc3C)C[C@@]3(C)C[C@@H]23)c2c(C)cc(-c3cnc(C(C)O)nc3)cc12 (stereo partly drawn) [Compound 96, (1R,3S,5R)-2-(2-(3-acetyl-5-(2-(1-hydroxyethyl)pyrimidin-5-yl)-7-methyl-11H-indazol-1-yl)acetyl)-N-(6-bromo-5-fluoro-3-methylpyridin-2-yl)-5-methyl-2-azabicyclo[3.1.0]hexane-3-carboxamide]	< 1000 nM
COC(=O)C1(c2cncc(-c3ccc4c(c3)c(C(C)=O)nn4CC(=O)N3[C@H](C(=O)Nc4nc(Br)ccc4C)C[C@@]4(C)C[C@@H]34)c2)CC1 [Compound 97, Methyl 1-(5-(3-acetyl-1-(2-((1R,3S,5R)-3-((6-bromo-3-methylpyridin-2-yl)carbamoyl)-5-methyl-2-azabicyclo[3.1.0]hexan-2-yl)-2-oxoethyl)-1H-indazol-5-yl)pyridin-3-yl)cyclopropane-1-carboxylate]	< 1000 nM
CC(=O)c1nn(CC(=O)N2[C@H](C(=O)Nc3nc(Br)ccc3C)C[C@@]3(C)C[C@@H]23)c2ccc(-c3cncc(C4(C(=O)O)CC4)c3)cc12 [Compound 98, 1-(5-(3-acetyl-1-(2-((1R,3S,5R)-3-((6-bromo-3-methylpyridin-2-yl)carbamoyl)-5-methyl-2-azabicyclo[3.1.0]hexan-2-yl)-2-oxoethyl)-1H-indazol-5-yl)pyridin-3-yl)cyclopropane-1-carboxylic acid]	< 1000 nM
CC(=O)c1nn(CC(=O)N2[C@H]3CC[C@H](C3)[C@H]2C(=O)Nc2nc(Br)ccc2C)c2c(C)cc(-c3cnc(C)nc3)cc12 [Compound 99, (1S,3S,4R)-2-(2-(3-Acetyl-7-methyl-5-(2-methylpyrimidin-5-yl)-1H-indazol-1-yl)acetyl)-N-(6-bromo-3-methylpyridin-2-yl)-2-azabicyclo[2.2.1]heptane-3-carboxamide]	< 1000 nM
CC(=O)c1nn(CC(=O)N2[C@H]3CC[C@H](C3)[C@H]2C(=O)Nc2nc(Br)ccc2C)c2c(C)cc(-c3cnc(CO)nc3)cc12 [Compound 100, (1S,3S,4R)-2-(2-(3-acetyl-5-(2-(hydroxymethyl)pyrimidin-5-yl)-7-methyl-1H-indazol-1-yl)acetyl)-N-(6-bromo-3-methylpyridin-2-yl)-2-azabicyclo[2.2.1]heptane-3-carboxamide]	< 1000 nM
CC(=O)c1nn(CC(=O)N2[C@H]3CC[C@H](C3)[C@H]2C(=O)Nc2nc(Br)c(F)cc2C)c2c(C)cc(-c3cnc(C)nc3)cc12 [Compound 101, (1S,3S,4R)-2-(2-(3-Acetyl-7-methyl-5-(2-methylpyrimidin-5-yl)-1H-indazol-1-yl)acetyl)-N-(6-bromo-5-fluoro-3-methylpyridin-2-yl)-2-azabicyclo[2.2.1]heptane-3-carboxamide]	< 1000 nM
CC(=O)c1nn(CC(=O)N2[C@H](C(=O)NCCn3cccn3)C[C@@]3(C)C[C@@H]23)c2c(C)cc(-c3cnc(C)nc3)cc12 [Compound 102, (1R,3S,5R)-2-{2-[3-acetyl-7-methyl-5-(2-methylpyrimidin-5-yl)indazol-1-yl]acetyl}-5-methyl-N-[2-(pyrazol-1-yl)ethyl]-2-azabicyclo[3.1.0]hexane-3-carboxamide]	< 1000 nM
CC(=O)c1nn(CC(=O)N2[C@H](C(=O)NCCc3ccn(C)n3)C[C@@]3(C)C[C@@H]23)c2c(C)cc(-c3cnc(C)nc3)cc12 [Compound 103, (1R,3S,5R)-2-{2-[3-acetyl-7-methyl-5-(2-methylpyrimidin-5-yl)indazol-1-yl]acetyl}-5-methyl-N-[2-(1-methylpyrazol-3-yl)ethyl]-2-azabicyclo[3.1.0]hexane-3-carboxamide]	< 1000 nM
CC(=O)c1nn(CC(=O)N2[C@H](C(=O)NCCC3CCC3)C[C@@]3(C)C[C@@H]23)c2c(C)cc(-c3cnc(C)nc3)cc12 [Compound 104, (1R,3S,5R)-2-{2-[3-acetyl-7-methyl-5-(2-methylpyrimidin-5-yl)indazol-1-yl]acetyl}-N-(2-cyclobutylethyl)-5-methyl-2-azabicyclo[3.1.0]hexane-3-carboxamide]	< 1000 nM
